Results as given in ChEMBL document CHEMBL1129140, “Synthesis of C-oxetanosyl-thiazole and its carbocyclic analog nucleosides as potential chemotherapeutic agents” (Bioorg Med Chem Lett, 1996).
Each block holds one compound with its values, some of them ahead of it. Active and inactive are the calls of the source. The rule behind the calls is not given here.

Tests used:
Type in all cases: functional, cell-based
PC-12 [1] = assay: Induction of PC12 cell differentiation at 100 ug/ml; details: Rattus norvegicus
[2] = molecular target: High affinity nerve growth factor receptor (Rattus norvegicus) (UniProt P35739); assay: Induction of NGF receptor-induced differentiation of PC12 cells at 100 and 10 ug/ml; details: PC-12
Chain of High affinity nerve growth factor receptor (Rattus norvegicus) (P35739 whole entry): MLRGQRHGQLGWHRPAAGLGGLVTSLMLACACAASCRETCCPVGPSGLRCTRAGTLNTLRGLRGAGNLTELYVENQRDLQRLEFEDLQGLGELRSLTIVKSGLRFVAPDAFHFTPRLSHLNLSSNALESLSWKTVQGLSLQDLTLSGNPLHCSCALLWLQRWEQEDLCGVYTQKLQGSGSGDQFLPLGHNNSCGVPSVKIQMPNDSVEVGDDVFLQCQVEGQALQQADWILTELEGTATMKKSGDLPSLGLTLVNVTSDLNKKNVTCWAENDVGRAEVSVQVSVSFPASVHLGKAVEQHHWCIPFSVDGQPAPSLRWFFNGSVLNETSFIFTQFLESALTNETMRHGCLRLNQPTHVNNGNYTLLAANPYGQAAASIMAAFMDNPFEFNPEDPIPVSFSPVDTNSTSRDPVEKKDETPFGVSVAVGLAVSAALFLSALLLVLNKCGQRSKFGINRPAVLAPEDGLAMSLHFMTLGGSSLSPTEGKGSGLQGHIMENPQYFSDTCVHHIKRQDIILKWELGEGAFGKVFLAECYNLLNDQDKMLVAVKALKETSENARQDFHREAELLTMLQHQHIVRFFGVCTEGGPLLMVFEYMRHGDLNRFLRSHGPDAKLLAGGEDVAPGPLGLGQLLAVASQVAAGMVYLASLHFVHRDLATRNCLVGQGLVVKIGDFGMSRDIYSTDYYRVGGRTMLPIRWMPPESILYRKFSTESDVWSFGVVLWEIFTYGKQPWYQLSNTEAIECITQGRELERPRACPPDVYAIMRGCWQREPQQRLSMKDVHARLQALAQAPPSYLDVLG

[3] = molecular target: High affinity nerve growth factor receptor (Rattus norvegicus) (UniProt P35739); assay: Induction of NGF receptor-induced differentiation of PC12 cells at 1-100 ug/ml; details: PC-12
[4] = molecular target: High affinity nerve growth factor receptor (Rattus norvegicus) (UniProt P35739); assay: Inhibition of NGF receptor-induced differentiation of PC12 cells at 100 ug/ml (No effect); details: PC-12
PC-12 [5] = assay: Inhibition of PC12 cell differentiation at 100 ug/ml (No effect); details: Rattus norvegicus

Induction [2]: Active
Compound: NC(=O)c1csc([C@@H]2C[C@H](CO)C2CO)n1 (stereo not given in full)
Induction (PC-12 [1]): Active

Activity [3]: Active
Compound: NC(=O)c1csc([C@@H]2O[C@H](CO)C(O)[C@H]2O)n1 (single isomer, unassigned)

NA [4]: inactive
Compound: NC(=O)c1csc([C@@H]2O[C@H](CO)C2CO)n1 (stereo not given in full)
NA (PC-12 [5]): inactive
